Like-named read-outs stand apart in the source and are kept apart here.
Tests used:
Format in all cases: cell-based
[1] = tested on: Hep3B cells (hepatocellular carcinoma cell line); assay: In vitro MTS cell viability assay (NCI-60 methodology), Hep3B; settings: Homo sapiens, 48 h, 2 days drug incubation, 50% reduction vs time zero, read-out: Hep3B LC50
Summary of the method: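 Hep3B cells given five 2-fold dilutions of compound for 2 days, with viability by MTS measured at time zero and at end. LC50 is the concentration giving a 50% fall in viable cells relative to the start of treatment, per NCI-60 formula.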

[2] = tested on: SW480 (colon adenocarcinoma cell line); assay: In vitro MTS cell viability assay (NCI-60 methodology), SW480; settings: Homo sapiens, SW480 cells, read-out: SW480 LC50
Method: (§1) The cell viability measurement is based on the NCI-60 screening methodology (Nat. Rev. Cancer 6, 813-823, 2006). Briefly, cells are inoculated into 96-well plates at the optimal plating density. After 24 h, one of the two plates for Hep3B cell line is processed to determine a time zero cell viability (Tz) by MTS assay (Promega). Compounds are added over a 2-fold serial dilution to provide a total five drug concentrations plus DMSO control. Plates are incubated for a further 2 days, then measured cell viability by MTS assay [control growth (C) and test growth in the presence of drug at the five concentration levels (Ti)]. The LC50 is calculated from [(Ti−Tz)/Tz]×100=−50, which is the drug concentration resulting in a 50% reduction at the end of the drug treatment as compared to that at the beginning.
(§2) The compounds prepared in Tables 1-10 were tested in three in vitro assays, and the results are shown in Tables 1-10 for Hep3B and Table 11 for SW480 and NCI-H460 shown below. Herein, Hep3B refers to hepatocellular carcinoma cell line, SW480 refers to colon adenocarcinoma cell line, and NCI-H460 refers to human lung cancer cell line.
(§3) Shown in Tables 11 are in vitro activities of exemplary compounds of formula (I).

[3] = tested on: NCI-H460 (human lung cancer cell line); assay: In vitro MTS cell viability assay (NCI-60 methodology), NCI-H460; settings: NCI-H460 cells, read-out: NCI-H460 LC50
Method: as §1, §2, §3

Structure (SMILES)	LC50 ([1]; Table 6, MTS)	CC50 [2]	CC50 [3]	LC50 ([1]; Table 10, MTS)	LC50 ([1]; Table 5, MTS)
O=C(Nc1nc(-c2ccc(Cl)cc2)nc2c1cnn2-c1ccc(F)cc1)c1ccc([N+](=O)[O-])s1 [Compound 6-118, N-(6-(chlorophenyl)-1-(4-fluorophenyl)-1H-pyrazolo[3,4-d]pyrimidin-4-yl)-5-nitrothiophene-2-carboxamide]	250 nM	2180 nM	980 nM	–	–
O=C(Nc1nc(-c2ccc(Cl)nc2)nc2c1cnn2C1CCC(F)(F)CC1)c1ccc([N+](=O)[O-])s1 [Compound 10-57, N-(6-(6-chloropyridin-3-yl)-1-(4,4-difluorocyclohexyl)-TH-pyrazolo[3,4-d]pyrimidin-4-yl)-5-nitrothiophene-2-carboxamide]	–	1340 nM	1300 nM	570 nM	–
O=C(Nc1nc(-c2ccc(OCC(F)(F)C(F)F)nc2)nc2c1cnn2-c1ccccc1)c1ccc([N+](=O)[O-])s1 [Compound 5-56, 5-nitro-N-(1-phenyl-6-(6-(2,2,3,3-tetrafluoropropoxy)pyridin-3-yl)-1H-pyrazolo[3,4-d]pyrimidin-4-yl)thiophene-2-carboxamide]	–	730 nM	1100 nM	–	400 nM
O=C(Nc1nc(-c2ccc(OC(F)(F)F)cc2)nc2c1cnn2-c1ccccc1)c1ccc([N+](=O)[O-])s1 [Compound 5-40, 5-nitro-N-(1-phenyl-6-(4-(trifluoromethoxy)phenyl)-1H-pyrazolo[3,4-d]pyrimidin-4-yl)thiophene-2-carboxamide]	–	5420 nM	930 nM	–	430 nM
N#Cc1ccc(-c2nc(NC(=O)c3ccc([N+](=O)[O-])s3)c3cnn(-c4ccccc4)c3n2)cn1 [Compound 5-33, N-(6-(6-cyanopyridin-3-yl)-1-phenyl-1H-pyrazolo[3,4-d]pyrimidin-4-yl)-5-nitrothiophene-2-carboxamide]	–	600 nM	1800 nM	–	300 nM
O=C(Nc1nc(-c2ccc(F)cc2)nc2c1cnn2C1CCCCC1)c1ccc([N+](=O)[O-])s1 [Compound 10-13, N-(1-cyclohexyl-6-(4-fluorophenyl)-1H-pyrazolo[3,4-d]pyrimidin-4-yl)-5-nitrothiophene-2-carboxamide]	–	1730 nM	2620 nM	700 nM	–
COCCOc1ccc(-c2nc(NC(=O)c3ccc([N+](=O)[O-])s3)c3cnn(-c4ccc(F)cc4)c3n2)cn1 [Compound 6-135, N-(1-(4-fluorophenyl)-6-(6-(2-methoxyethoxy)pyridin-3-yl)-1H-pyrazolo[3,4-d]pyrimidin-4-yl)-5-nitrothiophene-2-carboxamide]	220 nM	690 nM	560 nM	–	–
COc1ccc(-n2ncc3c(NC(=O)c4ccc([N+](=O)[O-])s4)nc(-c4ccc(F)nc4)nc32)cc1 [Compound 6-19, N-(6-(6-fluoropyridin-3-yl)-1-(4-methoxyphenyl)-1H-pyrazolo[3,4-d]pyrimidin-4-yl)-5-nitrothiophene-2-carboxamide]	60 nM	450 nM	220 nM	–	–
N#Cc1ccc(-c2nc(NC(=O)c3ccc([N+](=O)[O-])s3)c3cnn(-c4ccccc4)c3n2)cc1 [Compound 5-32, N-(6-(4-cyanophenyl)-1-phenyl-1H-pyrazolo[3,4-d]pyrimidin-4-yl)-5-nitrothiophene-2-carboxamide]	–	2770 nM	1160 nM	–	110 nM
O=C(Nc1nc(-c2ccc(F)c(F)c2)nc2c1cnn2-c1ccccc1)c1ccc([N+](=O)[O-])s1 [Compound 5-44, N-(6-(3,4-difluorophenyl)-1-phenyl-1H-pyrazolo[3,4-d]pyrimidin-4-yl)-5-nitrothiophene-2-carboxamide]	–	1620 nM	4640 nM	–	250 nM
O=C(Nc1nc(N2CCC(F)(F)C2)nc2c1cnn2-c1ccccc1)c1ccc([N+](=O)[O-])s1 [Compound 5-6, N-(6-(3,3-difluoropyrrolidin-1-yl)-1-phenyl-1H-pyrazolo[3,4-d]pyrimidin-4-yl)-5-nitrothiophene-2-carboxamide]	–	1960 nM	1460 nM	–	530 nM

Reference: patent US20240150356A1, “Pyrimidine amide compounds and use thereof” (ALPHALA CO., LTD., priority 2019, published 2024)
